In test [1] the target is T1, human CB2 receptor (hCB2R) (Homo sapiens, UniProt P34972).
T1 construct: expressed in transfected cells; membranes
Kind of test: TR-FRET hCB2R binding assay. As to conditions: TR-FRET, membranes of SNAP-tagged human CB2R HEK293-TR cells, 100 μM GppNHp, nonspecific binding with SR144528; read-out: Kd hCB2R.

The target in test [2] is T2, CB2 receptor (hCB2R), CHO cell line stably overexpressing CB2 receptor (Homo sapiens, UniProt P34972).
T2 construct: expressed in transfected cells; host or cells: CHO cell line stably overexpressing CB2 receptor (G418 selection)
The test is described as follows: cAMP hCB2R functional assay (HTRF). The class given is cell-based. To be noted: CHO cells overexpressing CB2 receptor, forskolin; for Functionality: normalized to Emax of CP55940 (100%); for pEC50: means ± SEM of 2-3 independent experiments. On the procedure: cAMP hCB2R Functional Assay
The Homogeneous Time Resolved Fluorescence (HTRF) Assays
The homogeneous time-resolved fluorescence (HTRF) cAMP assay was conducted according to the manufacturer's protocol for the cAMP-Gs Dynamic kit (Cisbio). Briefly, the CHO cell line stably overexpressing CB2 receptor were maintained in Ham's F12 supplemented with 10% FBS, 100 U/ml penicillin and 100 μg/ml streptomycin (Gibco-ThermoFisher) and 400 μg/ml G418 (ThermoFisher). For CB2 compounds test, harvest the cells with Cell Dissociation Buffer and re-suspend the cells in F-12 K at 0.4*10^6 cells/mL, and dispense cells into 384-well low volume plates at 2000 cells/5 μL per well. The cells were stimulated with compounds diluted in Stimulation Buffer (2.5 μL/well) for 15 min at room temperature. And then followed by the addition of 2.5 μL 25 μM forsklin. After 15 mins incubation, reactions were stopped by 5 μL/well cAMP-d2 conjugate working solution followed by 5 μL/well of anti-cAMP cryptate working solution. After incubation for 1 h at room temperature, the plates were read in a PerkinElmer Envision reader for time-resolved fluorescence resonance energy transfer detection at 620 nm and 665 nm.
Quantification and Statistical Analysis
All HTRF ratio data sets of test compounds were normalized to the Emax of CP55940 (100%) and obtained the means±standard error of the mean (SEM) of 2-3 independent experiments performed in technical replicates.
Background: TR-FRET usually uses a lanthanide donor and a delayed reading to cut background.

Test [3] has as its target hCB1R (Homo sapiens, UniProt P21554). Kind of test: hCB1R binding (Kd hCB1R, Table 1).

pEC50, pKd: −log10 of the molar value.

Results on 13 compounds are retold here after US20260200892A1, “CANNABINOID RECEPTOR 2 MODULATORS” (Hoffmann-La Roche Inc., priority 2023, published 2026).

Sequence of hCB1R (P21554 whole entry): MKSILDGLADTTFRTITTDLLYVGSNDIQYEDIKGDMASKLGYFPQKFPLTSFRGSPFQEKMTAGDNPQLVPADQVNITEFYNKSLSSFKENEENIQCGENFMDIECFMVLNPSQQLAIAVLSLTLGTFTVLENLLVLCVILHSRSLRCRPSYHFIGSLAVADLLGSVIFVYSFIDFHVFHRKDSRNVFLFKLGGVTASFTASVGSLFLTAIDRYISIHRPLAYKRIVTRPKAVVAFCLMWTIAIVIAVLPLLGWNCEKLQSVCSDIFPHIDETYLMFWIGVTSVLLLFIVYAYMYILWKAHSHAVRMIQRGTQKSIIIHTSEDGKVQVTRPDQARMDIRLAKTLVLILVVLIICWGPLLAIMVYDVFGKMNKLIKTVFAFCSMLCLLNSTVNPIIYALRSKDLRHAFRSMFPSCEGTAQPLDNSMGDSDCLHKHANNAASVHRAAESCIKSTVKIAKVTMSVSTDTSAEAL
T2 sequence (P34972 whole entry): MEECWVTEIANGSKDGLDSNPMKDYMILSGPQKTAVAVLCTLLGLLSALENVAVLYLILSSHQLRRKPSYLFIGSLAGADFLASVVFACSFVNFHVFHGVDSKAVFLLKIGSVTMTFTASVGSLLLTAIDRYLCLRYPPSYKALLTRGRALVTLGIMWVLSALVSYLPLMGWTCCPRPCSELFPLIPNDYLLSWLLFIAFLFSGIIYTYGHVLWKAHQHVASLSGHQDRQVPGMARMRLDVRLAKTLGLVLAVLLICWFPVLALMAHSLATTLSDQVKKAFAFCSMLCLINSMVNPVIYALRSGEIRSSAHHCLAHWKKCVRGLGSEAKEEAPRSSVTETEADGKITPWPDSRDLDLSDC
T1 sequence (P34972 whole entry): as above

As for `CCCCC[C@@H](C(F)(F)F)C(C)(C)c1cc(OC)c([C@H]2C=C(CO)[C@H]3C[C@@H]2C3(C)C)c(OC)c1` [Example 1, ((1S,4S,5S)-4-(2,6-dimethoxy-4-((R)-2-methyl-3-(trifluoromethyl)octan-2-yl)phenyl)-6,6-dimethylbicyclo[3.1.1]hept-2-en-2-yl)methanol], the results for the pKd in test [1] and in test [3] were 6.22 and 4.93, respectively. Besides, the Functionality entry in test [2] is “antagonist”.

For the compound `CCCCC[C@H](C(F)(F)F)C(C)(C)c1cc(OC)c([C@H]2C=C(CO)[C@H]3C[C@@H]2C3(C)C)c(OC)c1` [Example 2, ((1S,4S,5S)-4-(2,6-dimethoxy-4-((S)-2-methyl-3-(trifluoromethyl)octan-2-yl)phenyl)-6,6-dimethylbicyclo[3.1.1]hept-2-en-2-yl)methanol], the pKd (commonly the Kd on a negative log10 scale, so that one unit is a factor of ten) is 8.00 in test [1] and 5.19 in test [3]. Besides, in test [2], the pEC50 (usually the negative decadic logarithm of the EC50, by convention in mol/L) was 7.93. For the same compound, the Functionality result in test [2] is listed as “agonist”.

As for `CCCCCC(CC)C(C)(C)c1cc(OC)c([C@H]2C=C(CO)[C@H]3C[C@@H]2C3(C)C)c(OC)c1` (stereo partly drawn) [Example 3, ((1S,4S,5S)-4-(4-(3-ethyl-2-methyloctan-2-yl)-2,6-dimethoxyphenyl)-6,6-dimethylbicyclo[3.1.1]hept-2-en-2-yl)methanol], in test [1], the pKd is 9.25. Also, in test [2], the pEC50 is 7.00 and the Functionality entry is listed as “partial agonist”. The compound also had a pKd in test [3] of 4.89.

For the compound `CCCCCC(CCC)C(C)(C)c1cc(OC)c([C@H]2C=C(CO)[C@H]3C[C@@H]2C3(C)C)c(OC)c1` (stereo partly drawn) [Example 5, ((1S,4S,5S)-4-(2,6-dimethoxy-4-(2-methyl-3-propyloctan-2-yl)phenyl)-6,6-dimethylbicyclo[3.1.1]hept-2-en-2-yl)methanol], in test [1], the pKd was 7.13. In addition, in test [2], the pEC50 is 6.95 and the Functionality entry was “inverse agonist”. The same compound showed a pKd in test [3] of 5.17.

On to `CCCCCC(C(C)C)C(C)(C)c1cc(OC)c([C@H]2C=C(CO)[C@H]3C[C@@H]2C3(C)C)c(OC)c1` (stereo partly drawn) [Example 6, ((1S,4S,5S)-4-(4-(3-isopropyl-2-methyloctan-2-yl)-2,6-dimethoxyphenyl)-6,6-dimethylbicyclo[3.1.1]hept-2-en-2-yl)methanol], for which the pKd was 8.21 in test [1] and 5.15 in test [3]. In addition, the Functionality result in test [2] was “antagonist”.

Consider `CCCCC[C@H](c1ccccc1)C(C)(C)c1cc(OC)c([C@H]2C=C(CO)[C@H]3C[C@@H]2C3(C)C)c(OC)c1` [Example 7, ((1S,4S,5S)-4-(2,6-dimethoxy-4-((R)-2-methyl-3-phenyloctan-2-yl)phenyl)-6,6-dimethylbicyclo[3.1.1]hept-2-en-2-yl)methanol], for which the pKd in test [1] was 6.71. Besides, in test [2], the negative-log EC50 (pEC50) was 6.38 and the Functionality result was “inverse agonist”. In test [3], this compound showed a pKd of 5.98.

As to `CCCCC[C@@H](c1ccccc1)C(C)(C)c1cc(OC)c([C@H]2C=C(CO)[C@H]3C[C@@H]2C3(C)C)c(OC)c1` [Example 8, ((1S,4S,5S)-4-(2,6-dimethoxy-4-((S)-2-methyl-3-phenyloctan-2-yl)phenyl)-6,6-dimethylbicyclo[3.1.1]hept-2-en-2-yl)methanol], the pKd in test [1] was 8.35. Besides, in test [2], the pEC50 is 6.52 and the Functionality entry is on record as “inverse agonist”. Further, in test [3], the negative logarithm of the Kd (pKd) is 6.15.

As to `CCCCC[C@H](c1ccc(F)cc1)C(C)(C)c1cc(OC)c([C@H]2C=C(CO)[C@H]3C[C@@H]2C3(C)C)c(OC)c1` [Example 9, ((1S,4S,5S)-4-(4-((R)-3-(4-fluorophenyl)-2-methyloctan-2-yl)-2,6-dimethoxyphenyl)-6,6-dimethylbicyclo[3.1.1]hept-2-en-2-yl)methanol], the values for the pKd in test [1] and in test [3] were 5.94 and 5.83, respectively. In test [2], the Functionality result is “antagonist”.

As for `CCCCC[C@@H](c1ccc(F)cc1)C(C)(C)c1cc(OC)c([C@H]2C=C(CO)[C@H]3C[C@@H]2C3(C)C)c(OC)c1` [Example 10, ((1S,4S,5S)-4-(4-((S)-3-(4-fluorophenyl)-2-methyloctan-2-yl)-2,6-dimethoxyphenyl)-6,6-dimethylbicyclo[3.1.1]hept-2-en-2-yl)methanol], the values for the negative-log Kd (pKd) in test [1] and in test [3] were 6.52 and 5.75, respectively. Besides, the Functionality entry in test [2] was “antagonist”.

As for `CCCCC[C@H](c1cccc(F)c1)C(C)(C)c1cc(OC)c([C@H]2C=C(CO)[C@H]3C[C@@H]2C3(C)C)c(OC)c1` [Example 11, ((1S,4S,5S)-4-(4-((R)-3-(3-fluorophenyl)-2-methyloctan-2-yl)-2,6-dimethoxyphenyl)-6,6-dimethylbicyclo[3.1.1]hept-2-en-2-yl)methanol], the pKd in test [1] was 6.45. In test [2], the pEC50 was 5.63 and the Functionality entry was “inverse agonist”. The pKd in test [3] was 5.57.

As for `CCCCC[C@@H](c1cccc(F)c1)C(C)(C)c1cc(OC)c([C@H]2C=C(CO)[C@H]3C[C@@H]2C3(C)C)c(OC)c1` [Example 12, ((1S,4S,5S)-4-(4-((S)-3-(3-fluorophenyl)-2-methyloctan-2-yl)-2,6-dimethoxyphenyl)-6,6-dimethylbicyclo[3.1.1]hept-2-en-2-yl)methanol], in test [1], the pKd was 7.52. In test [2], the pEC50 was 6.68 and the Functionality result is given as “inverse agonist”. This compound gave a pKd in test [3] of 5.71.

Regarding `CCN(CC)c1ccc2cc(/C=C/c3ccc(S(=O)(=O)[O-])c[n+]3CCCCCC(=O)NCC3=C[C@H](c4c(OC)cc(C(C)(C)[C@H](CCCCCN=[N+]=[N-])c5ccccc5)cc4OC)[C@@H]4C[C@H]3C4(C)C)c(=O)oc2c1` [Example 22, 1-(6-((((1S,4S,5S)-4-(4-((R)-8-azido-2-methyl-3-phenyloctan-2-yl)-2,6-dimethoxyphenyl)-6,6-dimethylbicyclo[3.1.1]hept-2-en-2-yl)methyl)amino)-6-oxohexyl)-6-((E)-2-(7-(diethylamino)-2-oxo-2H-chromen-3-yl)vinyl)pyridin-1-ium-3-sulfonate], in test [1], the negative logarithm of the Kd (pKd) was 7.99. In addition, in test [2], the pEC50 is 7.15 and the Functionality entry is listed as “inverse agonist”. This compound also had a negative logarithm of the Kd (pKd) in test [3] of 5.76.

As for `COc1cc(C(C)(C)[C@H](CCCCCN=[N+]=[N-])c2ccccc2)cc(OC)c1[C@H]1C=C(CNC(=O)CCCCCCNc2ccc([N+](=O)[O-])c3nonc23)[C@H]2C[C@@H]1C2(C)C` [Example 24, N-(((1S,4S,5S)-4-(4-((R)-8-azido-2-methyl-3-phenyloctan-2-yl)-2,6-dimethoxyphenyl)-6,6-dimethylbicyclo[3.1.1]hept-2-en-2-yl)methyl)-7-((7-nitrobenzo [c][1,2,5]oxadiazol-4-yl)amino)heptanamide], in test [1], the pKd was 7.91. Moreover, in test [2], the negative logarithm of the EC50 (pEC50) is 5.91 and the Functionality entry was “inverse agonist”. In test [3], the negative logarithm of the Kd (pKd) was 6.08.
